Measured values: US11254686B1 (Corvus Pharmaceuticals, Inc., priority 2017, dated 2022)

Experiments:
Type in all cases: biochemical
adenosine A3 receptor = adenosine A3 receptor (Homo sapiens (Human), UniProt P0DMS8); assay: Adenosine receptor activity assay (Table 1), A3 cAMP
adenosine A2B receptor = adenosine A2B receptor (Homo sapiens (Human), UniProt P29275); assay: Adenosine receptor activity assay (Table 1), A2B activity; settings: for Ratio: A2A activity to the A2B activity, A2A/A2B; for IC50: cAMP, read-out: Ave A2B cAMP IC50
Sequence of adenosine A2B receptor (P29275 whole entry): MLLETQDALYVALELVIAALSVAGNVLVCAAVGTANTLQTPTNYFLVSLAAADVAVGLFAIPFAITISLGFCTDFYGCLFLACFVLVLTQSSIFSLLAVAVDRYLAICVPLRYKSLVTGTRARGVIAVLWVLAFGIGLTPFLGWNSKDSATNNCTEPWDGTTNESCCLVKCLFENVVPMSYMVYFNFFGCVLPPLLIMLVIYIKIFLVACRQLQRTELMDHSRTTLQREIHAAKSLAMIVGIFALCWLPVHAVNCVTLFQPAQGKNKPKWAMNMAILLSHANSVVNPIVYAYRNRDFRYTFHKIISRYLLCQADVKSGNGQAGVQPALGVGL

adenosine A2A receptor = adenosine A2A receptor (Homo sapiens (Human), UniProt P29274); assay: Adenosine receptor activity assay (Table 1), A2A activity; settings: cAMP; read-out: Ave A2A cAMP IC50
Sequence of adenosine A2A receptor (P29274 whole entry): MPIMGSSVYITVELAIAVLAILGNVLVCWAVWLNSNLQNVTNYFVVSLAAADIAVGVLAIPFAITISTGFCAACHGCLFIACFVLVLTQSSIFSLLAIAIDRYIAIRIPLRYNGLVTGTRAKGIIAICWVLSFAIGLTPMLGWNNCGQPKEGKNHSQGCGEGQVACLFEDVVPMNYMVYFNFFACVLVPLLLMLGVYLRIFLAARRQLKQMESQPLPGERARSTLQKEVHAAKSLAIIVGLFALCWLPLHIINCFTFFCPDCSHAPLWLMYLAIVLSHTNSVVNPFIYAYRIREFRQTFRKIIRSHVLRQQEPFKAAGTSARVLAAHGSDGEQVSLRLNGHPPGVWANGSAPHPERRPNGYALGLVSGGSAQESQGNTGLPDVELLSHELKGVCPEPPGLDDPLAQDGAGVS

adenosine A1 receptor = adenosine A1 receptor (Homo sapiens (Human), UniProt P30542); assay: Adenosine receptor activity assay (Table 1), A1 cAMP
Sequence of adenosine A1 receptor (P30542 whole entry): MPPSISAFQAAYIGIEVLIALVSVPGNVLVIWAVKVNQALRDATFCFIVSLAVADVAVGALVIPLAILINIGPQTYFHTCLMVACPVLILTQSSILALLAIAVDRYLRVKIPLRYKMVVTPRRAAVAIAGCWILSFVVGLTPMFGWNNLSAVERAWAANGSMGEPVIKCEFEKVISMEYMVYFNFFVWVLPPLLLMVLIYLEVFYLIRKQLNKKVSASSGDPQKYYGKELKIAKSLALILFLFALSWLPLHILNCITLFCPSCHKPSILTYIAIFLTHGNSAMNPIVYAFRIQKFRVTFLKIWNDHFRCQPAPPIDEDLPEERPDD

Sequence of adenosine A3 receptor (P0DMS8 whole entry): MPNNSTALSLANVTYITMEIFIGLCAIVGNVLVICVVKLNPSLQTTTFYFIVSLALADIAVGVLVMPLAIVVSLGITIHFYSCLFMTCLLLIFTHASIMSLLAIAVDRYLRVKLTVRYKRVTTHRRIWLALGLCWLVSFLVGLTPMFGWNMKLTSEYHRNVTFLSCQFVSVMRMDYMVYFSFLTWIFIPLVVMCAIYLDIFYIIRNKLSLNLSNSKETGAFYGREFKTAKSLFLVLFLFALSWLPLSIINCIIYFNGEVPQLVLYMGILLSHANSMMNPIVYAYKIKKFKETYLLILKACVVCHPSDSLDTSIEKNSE

| Compound | IC50 (adenosine A3 receptor) [nM] | Ratio (adenosine A2B receptor) | IC50 (adenosine A2B receptor) [nM] | IC50 (adenosine A2A receptor) [nM] | IC50 (adenosine A1 receptor) [nM] |
| --- | --- | --- | --- | --- | --- |
| C[C@H](Nc1nc(C(=O)N2CC(NC(=O)C3(C)CC3)C2)c2sccc2n1)c1cncc(F)c1 [Example Z603, (S)—N-(1-(2-((1-(5-Fluoropyridin-3-yl)ethyl)amino)thieno[3,2-d]pyrimidine-4-carbonyl)azetidin-3-yl)-1-methylcyclopropane-1-carboxamide] | 100 to 500 | 1.00 | < 10 | < 10 | > 500 |
| C[C@H](Nc1nc(C(=O)N2CC(NC(=O)C3COC3)C2)c2sccc2n1)c1cncc(F)c1 [Example Z607, (S)—N-(1-(2-((1-(5-Fluoropyridin-3-yl)ethyl)amino)thieno[3,2-d]pyrimidine-4-carbonyl)azetidin-3-yl)oxetane-3-carboxamide] | > 500 | 4.49 | 10 to 50 | 50 to 100 | > 500 |
| C[C@H](Nc1nc(C(=O)N2CC(NC(=O)C3(C)CCOC3)C2)c2sccc2n1)c1cncc(F)c1 (stereo partly drawn) [Example Z608, N-(1-(2-(((S)-1-(5-Fluoropyridin-3-yl)ethyl)amino)thieno[3,2-d]pyrimidine-4-carbonyl)azetidin-3-yl)-3-methyltetrahydrofuran-3-carboxamide] | > 500 | 0.42 | 10 to 50 | < 10 | > 500 |
| C[C@H](Nc1nc(C(=O)N2CC(NC(=O)C3(C(F)(F)F)CC3)C2)c2sccc2n1)c1cncc(F)c1 [Example Z609, (S)—N-(1-(2-((1-(5-Fluoropyridin-3-yl)ethyl)amino)thieno[3,2-d]pyrimidine-4-carbonyl)azetidin-3-yl)-1-(trifluoromethyl)cyclopropane-1-carboxamide] | 100 to 500 | 0.98 | < 10 | < 10 | > 500 |
| C[C@H](Nc1nc(C(=O)N2CC(NC(=O)NC(C)(C)C)C2)c2sccc2n1)c1cncc(F)c1 [Example Z611, (S)-1-(tert-Butyl)-3-(1-(2-((1-(5-fluoropyridin-3-yl)ethyl)amino)thieno[3,2-d]pyrimidine-4-carbonyl)azetidin-3-yl)urea] | 100 to 500 | 0.80 | < 10 | < 10 | > 500 |
| C[C@H](Nc1nc(C(=O)N2CC(NC(=O)CCC3CCOCC3)C2)c2sccc2n1)c1cncc(F)c1 [Example Z612, (S)—N-(1-(2-((1-(5-Fluoropyridin-3-yl)ethyl)amino)thieno[3,2-d]pyrimidine-4-carbonyl)azetidin-3-yl)-3-(tetrahydro-2H-pyran-4-yl)propanamide] | 100 to 500 | 1.02 | 10 to 50 | 10 to 50 | > 500 |
| C[C@H](Nc1nc(C(=O)N2CC(NC(=O)c3ccccc3F)C2)c2sccc2n1)c1cncc(F)c1 [Example Z614, (S)-2-Fluoro-N-(1-(2-((1-(5-fluoropyridin-3-yl)ethyl)amino)thieno[3,2-d]pyrimidine-4-carbonyl)azetidin-3-yl)benzamide] | 100 to 500 | 1.76 | < 10 | < 10 | > 500 |
| C[C@H](Nc1nc(C(=O)N2CC(NC(=O)c3cccc(Cl)c3)C2)c2sccc2n1)c1cncc(F)c1 [Example Z615, (S)-3-Chloro-N-(1-(2-((1-(5-fluoropyridin-3-yl)ethyl)amino)thieno[3,2-d]pyrimidine-4-carbonyl)azetidin-3-yl)benzamide] | 100 to 500 | 2.10 | < 10 | < 10 | > 500 |
| C[C@H](Nc1nc(C(=O)N2CC(NC(=O)c3ccc(F)c(F)c3)C2)c2sccc2n1)c1cncc(F)c1 [Example Z616, (S)-3,4-Difluoro-N-(1-(2-((1-(5-fluoropyridin-3-yl)ethyl)amino)thieno[3,2-d]pyrimidine-4-carbonyl)azetidin-3-yl)benzamide] | > 500 | 4.32 | < 10 | 10 to 50 | > 500 |
| C[C@H](Nc1nc(C(=O)N2CC(NC(=O)OC3CCCC3)C2)c2sccc2n1)c1cncc(F)c1 [Example Z618, Cyclopentyl (S)-(1-(2-((1-(5-fluoropyridin-3-yl)ethyl)amino)thieno[3,2-d]pyrimidine-4-carbonyl)azetidin-3-yl)carbamate] | 100 to 500 | 1.31 | 10 to 50 | 10 to 50 | > 500 |
| C[C@H](Nc1nc(C(=O)N2CC(NC(=O)c3ccncc3)C2)c2sccc2n1)c1cncc(F)c1 [Example Z619, (S)—N-(1-(2-((1-(5-Fluoropyridin-3-yl)ethyl)amino)thieno[3,2-d]pyrimidine-4-carbonyl)azetidin-3-yl)isonicotinamide] | > 500 | 6.42 | 10 to 50 | 50 to 100 | > 500 |
| C[C@H](Nc1nc(C(=O)N2CC(C)(NC(=O)C3CC3)C2)c2sccc2n1)c1cncc(F)c1 [Example Z621, (S)—N-(1-(2-((1-(5-Fluoropyridin-3-yl)ethyl)amino)thieno[3,2-d]pyrimidine-4-carbonyl)-3-methylazetidin-3-yl)cyclopropanecarboxamide] | < 10 | 1.86 | 10 to 50 | 50 to 100 | > 500 |

More lines, now with the values ahead:

| IC50 (adenosine A3 receptor) [nM] | Ratio (adenosine A2B receptor) | IC50 (adenosine A2B receptor) [nM] | IC50 (adenosine A2A receptor) [nM] | IC50 (adenosine A1 receptor) [nM] | Compound |
| --- | --- | --- | --- | --- | --- |
| 100 to 500 | 1.90 | < 10 | 10 to 50 | > 500 | C[C@H](Nc1nc(C(=O)N2CC(NC(=O)c3ccoc3)C2)c2sccc2n1)c1cncc(F)c1 [Example Z600, (S)—N-(1-(2-((1-(5-Fluoropyridin-3-yl)ethyl)amino)thieno[3,2-d]pyrimidine-4-carbonyl)azetidin-3-yl)furan-3-carboxamide] |
| 100 to 500 | 0.90 | 10 to 50 | 10 to 50 | > 500 | C[C@H](Nc1nc(C(=O)N2CC(NC(=O)c3ccccc3)C2)c2sccc2n1)c1cncc(F)c1 [Example Z601, (S)—N-(1-(2-((1-(5-Fluoropyridin-3-yl)ethyl)amino)thieno[3,2-d]pyrimidine-4-carbonyl)azetidin-3-yl)benzamide] |
| 100 to 500 | 0.88 | < 10 | < 10 | > 500 | C[C@H](Nc1nc(C(=O)N2CC(NC(=O)C34CC(C3)C4)C2)c2sccc2n1)c1cncc(F)c1 [Example Z604, (S)—N-(1-(2-((1-(5-Fluoropyridin-3-yl)ethyl)amino)thieno[3,2-d]pyrimidine-4-carbonyl)azetidin-3-yl)bicyclo[1.1.1]pentane-1-carboxamide] |
| 100 to 500 | 0.77 | < 10 | < 10 | > 500 | C[C@H](Nc1nc(C(=O)N2CC(NC(=O)C3CCCC3)C2)c2sccc2n1)c1cncc(F)c1 [Example Z605, (S)—N-(1-(2-((1-(5-Fluoropyridin-3-yl)ethyl)amino)thieno[3,2-d]pyrimidine-4-carbonyl)azetidin-3-yl)cyclopentanecarboxamide] |
| 100 to 500 | 0.47 | < 10 | < 10 | > 500 | C[C@H](Nc1nc(C(=O)N2CC(NC(=O)C(C)(C)C(F)(F)F)C2)c2sccc2n1)c1cncc(F)c1 [Example Z606, (S)-3,3,3-Trifluoro-N-(1-(2-((1-(5-fluoropyridin-3-yl)ethyl)amino)thieno[3,2-d]pyrimidine-4-carbonyl)azetidin-3-yl)-2,2-dimethylpropanamide] |
| 10 to 50 | 0.24 | < 10 | < 10 | > 500 | C[C@H](Nc1nc(C(=O)N2CC(NC(=O)C3CCCCC3)C2)c2sccc2n1)c1cncc(F)c1 [Example Z610, (S)—N-(1-(2-((1-(5-Fluoropyridin-3-yl)ethyl)amino)thieno[3,2-d]pyrimidine-4-carbonyl)azetidin-3-yl)cyclohexanecarboxamide] |
| 100 to 500 | 2.55 | < 10 | < 10 | > 500 | C[C@H](Nc1nc(C(=O)N2CC(NC(=O)c3cccc(F)c3)C2)c2sccc2n1)c1cncc(F)c1 [Example Z613, (S)-3-Fluoro-N-(1-(2-((1-(5-fluoropyridin-3-yl)ethyl)amino)thieno[3,2-d]pyrimidine-4-carbonyl)azetidin-3-yl)benzamide] |
| > 500 | 3.67 | < 10 | 10 to 50 | > 500 | C[C@H](Nc1nc(C(=O)N2CC(NC(=O)c3ccc(Cl)cc3)C2)c2sccc2n1)c1cncc(F)c1 [Example Z617, (S)-4-Chloro-N-(1-(2-((1-(5-fluoropyridin-3-yl)ethyl)amino)thieno[3,2-d]pyrimidine-4-carbonyl)azetidin-3-yl)benzamide] |
| > 500 | 3.94 | 10 to 50 | 50 to 100 | > 500 | C[C@H](Nc1nc(C(=O)N2CC(NC(=O)c3cccnc3)C2)c2sccc2n1)c1cncc(F)c1 [Example Z620, (S)—N-(1-(2-((1-(5-Fluoropyridin-3-yl)ethyl)amino)thieno[3,2d]pyrimidine-4-carbonyl)azetidin-3-yl)nicotinamide] |
| > 500 | 1.02 | 10 to 50 | 10 to 50 | > 500 | C[C@H](Nc1nc(C(=O)N2CC(NC(=O)C3CCOCC3)C2)c2sccc2n1)c1cncc(F)c1 [Example Z622, (S)—N-(1-(2-((1-(5-Fluoropyridin-3-yl)ethyl)amino)thieno[3,2-d]pyrimidine-4-carbonyl)azetidin-3-yl)tetrahydro-2H-pyran-4-carboxamide] |
